# What was measured:
# [1] = system: barnyardgrass; assay: Test B pre-/postemergence herbicide test; format: in vivo, Echinochloa crus-galli
# Procedure, shortened: (§1)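 Response was scored visually 13 to 15 days after treatment against untreated greenhouse controls, 0 meaning no effect and 100 complete control. Formulations (solvent mixture plus surfactant) went onto soil after planting, onto foliage of 1- to 4-leaf plants, and onto 2-leaf plants in a flooded paddy set including rice and barnyardgrass.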
# [2] = system: barnyardgrass; assay: Test B flooded paddy test; format: in vivo, Echinochloa crus-galli; settings: 1000 g ai/ha, visual rating, scale 0 to 100 (0 no effect, 100 complete control), 13 to 15 days
# Procedure, shortened: (§2)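 Visual control ratings, 0–100 versus untreated controls, taken after 13 to 15 days in the greenhouse. Blackgrass received a postemergence spray at the 1- to 4-leaf stage (2–18 cm); ducksalad, umbrella sedge and barnyardgrass were flooded-paddy treated at 2 leaves.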
# [3] = system: rice; assay: Test B flooded paddy test; format: in vivo, Oryza sativa; settings: 1000 g ai/ha, visual rating, scale 0 to 100 (0 no effect, 100 complete control), 13 to 15 days
# Procedure, shortened: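 Treated at 2-leaf (paddy) or 1–4-leaf, 2–18 cm (postemergence); greenhouse 13–15 d; visual score vs control, 0 none to 100 complete control; dash = not tested.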
# [4] = system: redroot pigweed; assay: Test A pre-/postemergence herbicide test; format: in vivo, Amaranthus retroflexus
# Procedure, shortened: (§3)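 Visual injury scores on a 0–100 scale (100 = complete control) taken about ten days post-treatment in greenhouse against untreated controls; dash means no result. Treatments: preemergence soil spray and postemergence spray to runoff on one- to two-leaf plants 2 to 10 cm tall, surfactant-containing formulation.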
# [5] = system: blackgrass; assay: Test B postemergence herbicide test; format: in vivo, Alopecurus myosuroides; settings: scale 0 (no effect) to 100 (complete control)
# Procedure, shortened: as §2
# [6] = system: velvetleaf; assay: Test A pre-/postemergence herbicide test; format: in vivo, Abutilon theophrasti
# Procedure, shortened: as §3
# [7] = system: Surinam grass; assay: Test B pre-/postemergence herbicide test; format: in vivo, Urochloa decumbens; settings: scale 0 (no effect) to 100 (complete control)
# Procedure, shortened: (§4)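 Herbicidal effect was judged by eye on a 0–100 scale after plants stood 13 to 15 days in the greenhouse following pre- or postemergence treatment with surfactant-containing formulations.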
# [8] = system: lambsquarters; assay: Test B pre-/postemergence herbicide test; format: in vivo, Chenopodium album
# Procedure, shortened: as §4
# [9] = system: wild oat; assay: Test B postemergence herbicide test; format: in vivo, Avena fatua; settings: scale 0 (no effect) to 100 (complete control)
# Procedure, shortened: (§5)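 Visual ratings, 0 (no effect) to 100 (complete control), made versus controls after 13–15 d greenhouse. Paddy plants treated at 2-leaf stage; postemergence plants at 1- to 4-leaf stage, 2–18 cm tall.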
# [10] = system: pigweed; assay: Test B pre-/postemergence herbicide test; format: in vivo, Amaranthus retroflexus
# Procedure, shortened: as §4
# [11] = system: large crabgrass; assay: Test A pre-/postemergence herbicide test; format: in vivo, Digitaria sanguinalis
# Procedure, shortened: as §3
# [12] = system: velvetleaf; assay: Test B pre-/postemergence herbicide test; format: in vivo, Abutilon theophrasti; settings: scale 0 (no effect) to 100 (complete control)
# Procedure, shortened: as §4
# [13] = system: ducksalad; assay: Test B flooded paddy test; format: in vivo, Heteranthera limosa; settings: 1000 g ai/ha, visual rating, scale 0 to 100 (0 no effect, 100 complete control), 13 to 15 days
# Procedure, shortened: as §2
# [14] = system: giant foxtail; assay: Test B pre-/postemergence herbicide test; format: in vivo, Setaria faberi
# Procedure, shortened: as §4
# [15] = system: small flower umbrella sedge; assay: Test B flooded paddy test; format: in vivo, Cyperus difformis; settings: 1000 g ai/ha, visual rating, scale 0 to 100 (0 no effect, 100 complete control), 13 to 15 days
# Procedure, shortened: as §2
# [16] = system: morningglory; assay: Test B pre-/postemergence herbicide test; format: in vivo, Ipomoea coccinea
# Procedure, shortened: as §1
# [17] = system: large crabgrass; assay: Test B pre-/postemergence herbicide test; format: in vivo, Digitaria sanguinalis; settings: scale 0 (no effect) to 100 (complete control)
# Procedure, shortened: as §4
# [18] = system: rice; assay: Test B pre-/postemergence herbicide test; format: in vivo, Oryza sativa; settings: preemergence
# Procedure, shortened: as §4
# [19] = system: corn; assay: Test B pre-/postemergence herbicide test; format: in vivo, Zea mays
# Procedure, shortened: as §4
# [20] = system: wheat; assay: Test B postemergence herbicide test; format: in vivo, Triticum aestivum; design: key to Wheat plant response rating: 0 = no effect, 100 = complete control; settings: scale 0 (no effect) to 100 (complete control)
# Procedure, shortened: as §5
# [21] = system: morningglory; assay: Test A pre-/postemergence herbicide test; format: in vivo, Ipomoea spp.
# Procedure, shortened: as §3
# [22] = system: barnyardgrass; assay: Test A pre-/postemergence herbicide test; format: in vivo, Echinochloa crus-galli
# Procedure, shortened: as §3
# [23] = system: cocklebur; assay: Test B pre-/postemergence herbicide test; format: in vivo, Xanthium strumarium; settings: scale 0 (no effect) to 100 (complete control)
# Procedure, shortened: as §1
# [24] = system: giant foxtail; assay: Test A pre-/postemergence herbicide test; format: in vivo, Setaria faberi
# Procedure, shortened: as §3
# [25] = 500 g ai/ha, visual rating 0-100, 0 no effect, 100 complete control, preemergence
# [26] = Postemergence, 500 g ai/ha, visual rating after 13 to 15 days, scale 0 (no effect) to 100 (complete control)
# [27] = postemergence, 125 g ai/ha, visual rating, scale 0 (no effect) to 100 (complete control)
# [28] = preemergence, 125 g ai/ha, 0 to 100 scale, 0 is no effect, 100 is complete control
# [29] = Postemergence, 500 g ai/ha, 0 to 100 scale, 0 no effect, 100 complete control
# [30] = Postemergence, 2000 g ai/ha, 0 to 100 scale, 0 no effect, 100 complete control
# [31] = Preemergence, 500 g ai/ha, visual rating, 0 to 100 scale (0 no effect, 100 complete control)
# [32] = Preemergence, 2000 g ai/ha, 0 to 100 scale, 0 no effect, 100 complete control
# [33] = Postemergence, 500 g ai/ha, visual rating after 13 to 15 days
# [34] = postemergence, 125 g ai/ha, visual rating
structure (smiles),measurement,setting,value
CCn1nc(C(C)(C)C)cc1C(=O)Nc1cccc(C(=O)OCCF)c1C [Compound 91],"Plant response rating, Barnyardgrass",[1]; [25],10
same,"Plant response rating, Barnyardgrass",[1]; [26],0
same,Barnyardgrass plant response rating,[1]; [27],0
same,"Plant response rating, Barnyardgrass",[1]; [28],0
same,Barnyardgrass plant response rating,[2],0
same,Rice plant response rating,[3],10
same,Pigweed plant response rating,[4]; [29],0
same,"Plant response rating, Pigweed",[4]; [30],20
same,Pigweed plant response rating,[4]; [31],0
same,Pigweed plant response rating,[4]; [32],55
same,"Plant response rating, Blackgrass",[5]; [33],0
same,Blackgrass plant response rating,[5]; [34],0
same,Velvetleaf plant response rating,[6]; [29],5
same,"Plant response rating, Velvetleaf",[6]; [30],10
same,Velvetleaf plant response rating,[6]; [31],5
same,Velvetleaf plant response rating,"[6]; Preemergence, 2000 g ai/ha, visual rating, 0 to 100 scale (0 no effect, 100 complete control)",20
same,"Plant response rating, Surinam Grass",[7]; [33],10
same,Surinam Grass plant response rating,[7]; [34],10
same,"Plant response rating, Lambsquarters",[8]; [25],30
same,"Plant response rating, Lambsquarters",[8]; [26],30
same,Lambsquarters plant response rating,[8]; [27],20
same,"Plant response rating, Lambsquarters",[8]; [28],0
same,"Plant response rating, Oat, Wild",[9]; [33],10
same,"Oat, Wild plant response rating",[9]; [34],0
same,"Plant response rating, Pigweed",[10]; [25],0
same,"Plant response rating, Pigweed",[10]; [26],10
same,Pigweed plant response rating,[10]; [27],10
same,"Plant response rating, Pigweed",[10]; [28],0
same,"Crabgrass, Large plant response rating",[11]; [29],10
same,"Plant response rating, Crabgrass, Large",[11]; [30],20
same,"Crabgrass, Large plant response rating",[11]; [31],0
same,"Crabgrass, Large plant response rating",[11]; [32],35
same,"Plant response rating, Velvetleaf",[12]; [33],10
same,Velvetleaf plant response rating,[12]; [34],0
same,Ducksalad plant response rating,[13],30
same,"Plant response rating, Foxtail, Giant",[14]; [25],10
same,"Plant response rating, Foxtail, Giant",[14]; [26],0
same,"Foxtail, Giant plant response rating",[14]; [27],0
same,"Plant response rating, Foxtail, Giant",[14]; [28],10
same,"Sedge, Umbrella plant response rating",[15],60
same,"Plant response rating, Morningglory",[16]; [25],10
same,"Plant response rating, Morningglory",[16]; [26],0
same,Morningglory plant response rating,[16]; [27],0
same,"Plant response rating, Morningglory",[16]; [28],0
same,"Plant response rating, Crabgrass, Large",[17]; [33],10
same,"Crabgrass, Large plant response rating",[17]; [34],0
same,"Plant response rating, Rice","[18]; 500 g ai/ha, visual rating 0-100, 0 no effect, 100 complete control",10
same,"Plant response rating, Rice","[18]; 125 g ai/ha, 0 to 100 scale, 0 is no effect, 100 is complete control",0
same,"Plant response rating, Corn",[19]; [25],10
same,"Plant response rating, Corn",[19]; [26],10
same,Corn plant response rating,[19]; [27],10
same,"Plant response rating, Corn",[19]; [28],0
same,"Plant response rating, Wheat",[20]; [33],10
same,Wheat plant response rating,[20]; [34],0
same,Morningglory plant response rating,[21]; [29],0
same,"Plant response rating, Morningglory",[21]; [30],0
same,Morningglory plant response rating,[21]; [31],0
same,Morningglory plant response rating,[21]; [32],10
same,Barnyardgrass plant response rating,[22]; [29],0
same,"Plant response rating, Barnyardgrass",[22]; [30],0
same,Barnyardgrass plant response rating,[22]; [31],0
same,Barnyardgrass plant response rating,[22]; [32],15
same,"Plant response rating, Cocklebur",[23]; [33],10
same,Cocklebur plant response rating,[23]; [34],0
same,"Foxtail, Giant plant response rating",[24]; [29],0
same,"Plant response rating, Foxtail, Giant",[24]; [30],0
same,"Foxtail, Giant plant response rating",[24]; [31],0
same,"Foxtail, Giant plant response rating",[24]; [32],30

# Source: patent US20060069132A1, “Azolecarboxamide herbicides” (priority 2004, published 2006)
